From patent publication US8759308B2, “RNAi probes targeting cancer-related proteins” (The University of British Columbia, priority 2002, dated 2014)
d = 2'-deoxy (DNA); r = 2'-OH (RNA)

How the values were obtained:
IGFBP-5 transcript [1] = test: IGFBP-5 transcript by RT-PCR in PC3 cells; assay type: cell-based, human; conditions: 10, 50 and 100 nM
Description: PC3 cells were transfected with various doses (10, 50 and 100 nM) of the 3 species of bispecies siRNA (BS-1, BS-2 and BS-3) or scrambled control. A vehicle only control was also evaluated. Total. RNA was extracted and analyzed by RT-PCR for IGFBP-5 transcript.

IGFBP-5 transcript [2] = test: IGFBP-5 transcript by RT-PCR in primary human bone fibroblasts; assay type: cell-based; conditions: 50 nM
Description: Primary human bone fibroblasts were transfected with 50 nM of the 3 species of bispecific siRNA (BS-1, BS-2 and BS-3) or scrambled control. A vehicle only and an untreated control were was also evaluated. Total RNA was extracted and analyzed by RT-PCR for IGFBP-5 transcript.

clusterin transcript [3] = test: Clusterin transcript by Real Time PCR in PC3 cells; assay type: cell-based, human; conditions: 10, 50 or 100 nM, two days
Description: (§1) PC3 cells were transfected with siRNA at levels of 10, 50 or 100 nM or with 100 nM scrambled control. Two days after transfection, total RNA was extracted and the level of clusterin transcript was quantified by Real Time PCR.

clusterin transcript [4] = test: Clusterin transcript by Real Time PCR in A549 cells; assay type: cell-based, human; conditions: 10, 50 or 100 nM, two days
Description: as §1
The experiment of Example 9 was repeated using A549 cells in place of PC3 cells.

PC3 cells = test: PC3 cell viability with siRNA and Taxol, MTT assay; assay type: cell-based, human; conditions: 25 nM siRNA, then Taxol three days
Description: PC3 cells were treated once with 25 nM human clusterin siRNAs (CLU-3 and CLU-5), a scrambled control, or oligoFECTAMINE™ only. After two days of treatment, the medium was replaced with medium containing various concentrations of Taxol (Paclitaxel). After three days of incubation, cell viability was determined by MTT assay. FIG. 11 summarizes the results.

clusterin transcript [5] = test: Clusterin transcript by Northern blot in PC3 cells; assay type: cell-based, human; conditions: all doses (10, 50 or 100 nM), two days
Description: PC3 cells were treated (1 pulse) with CLU-3 (Seq ID NOs. 5 and 6) or CLU-5 (Seq ID Nos 9 and 10) or with a scrambled control at levels of 10, 50 or 100 nM, or with oligoFECTAMINE™ only. After two days total RNA was extracted and analyzed for clusterin and GADPH by Northern blotting. Densitometric measurement was performed. FIG. 10 presents results of these measurements after normalization to GADPH.

[6] = system: 55 kDa n-CLU protein form; test: Expression of n-CLU protein form after siRNA; assay type: cell-based, human; conditions: KH OS and U-2 OS cells
Excerpt: (§2) OS cells sensitization to genotoxic and oxidative stress due to CLU gene silencing is related to activation of the cellular apoptotic machinery. […] We assume that the explanation of this effect relies on our observation that the n-CLU protein is extremely stable.

CLU protein = test: CLU gene silencing by siRNA in OS cells (immunoblotting); assay type: cell-based, human; conditions: for CLU protein accumulation following exposure to DXR: KH OS and U-2 OS cells, DXR for 24 h in presence of siRNA; for knock-down of secreted CLU (s-CLU) protein form: OS cells; for cellular CLU protein levels / CLU gene silencing: three OS cell lines, 100 nM siRNA duplex, 2-3 days
Excerpt: The human clusterin cDNA was manually scanned in order to identify sequences of the AA(N19)UU (N, any nucleotide) type that fulfill the required criteria for siRNA (Harbourth et al., J Cell Sci 114: 4557-4560 (2001)). Two such sequences with symmetric 2-nt 3′ overhangs, were found 433 (Cl-I) and 644 (Cl-II) nts downstream of the CLU gene transcription initiation codon. Two additional oligonucleotides used targeted a region 1620 nts downstream of the CLU gene transcription initiation codon (Cl-III) and the human CLU transcription initiation site (Cl-V) (see Table). […] Selected RNA oligos were synthesized by Dharmacon Research, Inc. (Lafayette, Colo.), diluted at a 20 μM final concentration in RNasefree ddH2O and stored at −20° C. The Scramble-I™ (Sc-I) (D-1200-20) and Scramble-II™ (Sc-II) (D-1205-20) oligonucleotides used were purchased from Dharmacon Research, Inc.
siRNA transfection of the Cl-I, Cl-II and scrambled RNA duplexes in exponentiary growing OS cells was performed as described (Harbourth et al., Tuschl et al., Genes Dev. 13: 3191-3197 (1999)). Briefly, cells were seeded the day before siRNA transfection in 24-well plates containing 500 μl complete medium and were ˜40-50% confluent during transfection. For the transfection mixture 100 nM of siRNA duplex per well were used. The RNA duplex was diluted in Opti-MEM® I (Gibco Life Technologies, Inc., San Diego, Calif.) serum free medium and transfection efficiency was enhanced by using the Oligofectamine™ reagent (Invitrogen Life technologies Inc., San Diego, Calif.). When cells were treated with both Cl-i and Cl-II oligonucleotides, 100 nM of each siRNA duplex were used. Cell treatment with the siRNA oligonucleotides lasted for 2-3 days.
(§3) Alternatively, in PC3 cells Lipofectin™ (Invitrogen Life technologies Inc., San Diego, Calif.) was used to enhance transfection with the Cl-III and CL-V oligonucleotides. PC3 cells were treated with 10, 50, or 100 nM of the RNA duplexes after pre-incubation with 4 μg/ml of […] reagent in serum free OptiMEM® I for 20 minutes. Four hours after starting the incubation, the medium containing the RNA duplexes and Lipofectin was replaced with standard tissue culture medium. Cells were treated once on day 1 and then harvested 48 h after treatment on day 3. In all cases controls used included: (a) the usage of the Sc-I and Sc-II RNA duplexes and (b) mock transfections in the absence of a nucleic acid (Con-I). CLU gene silencing was assayed by RNA blot analysis, immunoblotting analysis or confocal immunofluorescence.
Efficient silencing of the CLU gene expression in OS cells is achieved using siRNA.

[7] = system: 49 kDa c-CLU protein form; test: Expression of c-CLU protein form after siRNA; assay type: cell-based, human; conditions: KH OS and U-2 OS cells
Excerpt: as §2

CLU mRNA and protein = test: CLU gene silencing by siRNA in PC3 cells (RNA blot, immunoblot); assay type: cell-based, human; conditions: sequence-dependent but dose-independent
Description: as §3
Effects of CLU gene silencing in PC-3 prostate cancer cells were determined. Having established the significant effects of CLU knock down in OS cells, we then applied CLU siRNA in PC3 human prostate cancer cells. PC3 cells are p53 null (Rohlff, et al., Prostate 37: 51-59 (1998)) and express relatively low endogenous amount of the s-CLU protein form similar to the Sa OS cells. In PC3 cells, apart from employing the Cl-I and Cl-II oligonucleotides, we also tested two additional CLU-specific siRNA oligonucleotides (Cl-III, Cl-V). […]

## BS-1: IGFBP-2 and -5 bispecific siRNA, double-stranded RNA from Seq. ID NOs. 39 and 40 (chain 1 GGAGCCGGGCUGCGGCUGCTT; chain 2 GCAGCCGCAGCCCGGCUCCTT; sugars from the 5' end r19 d2, backbone not given here)
IGFBP-5 transcript [1]
  amount of IGFBP-5 transcript: reduction in the amount of IGFBP-5 transcript
IGFBP-5 transcript [2]
  amount of IGFBP-5 transcript: reduction in the amount of IGFBP-5 transcript

## BS-2: IGFBP-2 and -5 bispecific siRNA, double-stranded RNA from Seq. ID NOs. 41 and 42 (chain 1 CGUGCGGCGUCUACACCTT; chain 2 GGUGUAGACGCCGCACGTT; sugars from the 5' end r17 d2, backbone not given here)
IGFBP-5 transcript [1]
  amount of IGFBP-5 transcript: reduction in the amount of IGFBP-5 transcript
IGFBP-5 transcript [2]
  amount of IGFBP-5 transcript: reduction in the amount of IGFBP-5 transcript

## BS-3: IGFBP-2 and -5 bispecific siRNA, double-stranded RNA from Seq. ID NOs. 43 and 44 (chain 1 CCAGGGGCUGCGCUGCTT; chain 2 GCAGCGCAGCCCCUGGTT; sugars from the 5' end r16 d2, backbone not given here)
IGFBP-5 transcript [1]
  amount of IGFBP-5 transcript: reduction in the amount of IGFBP-5 transcript
IGFBP-5 transcript [2]
  amount of IGFBP-5 transcript: reduction in the amount of IGFBP-5 transcript

## CLU1: clusterin siRNA, double-stranded RNA from Seq. ID NOs. 1 and 2 (chain 1 CCAGAGCUCGCCCUUCUACTT; chain 2 GUAGAAGGGCGAGCUCUGGTT; sugars from the 5' end r19 d2, backbone not given here)
Clusterin transcript [3]
  amount of clusterin transcript: reduction in the amount of clusterin transcript
Clusterin transcript [4]
  amount of clusterin transcript: reduction in the amount of clusterin transcript

## CLU3: clusterin siRNA, double-stranded RNA from Seq. ID NOs. 5 and 6 (chain 1 CUAAUUCAAUAAAACUGUCTT; chain 2 GACAGUUUUAUUGAAUUAGTT; sugars from the 5' end r19 d2, backbone not given here)
PC3 cells
  viable cells with siRNA plus Taxol: worked in synergy
Clusterin transcript [5]
  amount of clusterin transcript normalized to GADPH: Reduction in the amount of clusterin transcript
Clusterin transcript [3]
  amount of clusterin transcript: reduction in the amount of clusterin transcript
Clusterin transcript [4]
  amount of clusterin transcript: reduction in the amount of clusterin transcript

## Cl-I: clusterin siRNA duplex, SEQ. ID No: 58 and 59; target 433 nts downstream of CLU transcription initiation codon (chain 1 CCAGAGCUCGCCCUUCUACTT; chain 2 GUAGAAGGGCGAGCUCUGGTT; sugars from the 5' end r19 d2, backbone not given here)
[6]
  effect on putative 55 kDa n-CLU protein form: did not exert any significant effect
CLU protein
  CLU protein accumulation following exposure to DXR: effectively abolished
  knock-down of secreted CLU (s-CLU) protein form: specifically knock-down
  cellular CLU protein levels / CLU gene silencing: knocking down significantly
CLU protein; OS cell lines
  effectiveness in silencing the CLU gene, Cl-I compared with Cl-II: slightly more effective than Cl-II
[7]
  effect on 49 kDa c-CLU protein form level: minor effect

## Cl-II: clusterin siRNA duplex, SEQ. ID No: 61 and 62; target 644 nts downstream of CLU transcription initiation codon (chain 1 GUCCCGCAUCGUCCGCAGCTT; chain 2 GCUGCGGACGAUGCGGGACTT; sugars from the 5' end r19 d2, backbone not given here)
[6]
  effect on putative 55 kDa n-CLU protein form: did not exert any significant effect
CLU protein
  CLU protein accumulation following exposure to DXR: effectively abolished
  knock-down of secreted CLU (s-CLU) protein form: specifically knock-down
  cellular CLU protein levels / CLU gene silencing: knocking down significantly
[7]
  effect on 49 kDa c-CLU protein form level: minor effect

## Cl-III: clusterin siRNA duplex, SEQ. ID No: 64 and 65; targets region 1620 nts downstream of initiation codon (chain 1 CUAAUUCAAUAAAACUGUCTT; chain 2 GACAGUUUUAUUGAAUUAGTT; sugars from the 5' end r19 d2, backbone not given here)
CLU mRNA and protein
  silencing CLU RNA and protein expression: quite effective

## Cl-V: clusterin siRNA duplex targeting the human CLU transcription initiation site; Table 7 Cl-IV, SEQ. ID No: 67 and 68 (chain 1 AUGAUGAAGACUCUGCUGC; chain 2 GCAGCAGAGUCUUCAUCAU; RNA, backbone not given here) [clusterin siRNA duplex targeting the human CLU transcription initiation site; ID No: 67 and 68]
CLU mRNA and protein
  silencing CLU RNA and protein expression: quite effective
